In US6107034A, “GATA-3 expression in human breast carcinoma” (The Board of Trustees of the Leland Stanford Junior …, priority 1998, dated 2000):

Legend:
MCF7 cells = assay: Northern blot of MCF7 cells in the presence and absence of β-estradiol; format: cell-based, human; conditions: 1×10^-8 M β-estradiol for three days
Procedure: All cell lines were obtained from American Type Culture Collection (ATCC, Rockville, Md.) and were maintained as described previously. MCF7 cells that were induced with estradiol were grown under normal conditions until approximately 25% confluence. The media was subsequently changed to phenol-red free Minimal Essential Media (Gibco BRL, Gaithersburg, Md.) supplemented with 10% charcoal-stripped fetal calf serum, 10 U/ml penicillin G, 10 μg/ml streptomycin, 6 ng/ml bovine insulin for six days. MCF7 cells were induced with 1×10^-8 M water soluble β-estradiol (Sigma Chemical Company, St. Louis, Mo.) for three days.
Poly(A+)mRNA was isolated from breast carcinoma cell lines and analyzed by Northern blot as described previously (Carmeci et al. (1997) Genomics 45, 607-617). The GATA-3 cDNA probe was prepared by reverse transcribing 1.6 μg of MCF7 poly(A)+RNA using the GeneAmp® RNA PCR Kit (Perkin Elmer, Foster City, Calif.) as per the manufacturer's recommendations. Resultant cDNA was used as template to PCR amplify (GeneAmp® PCR Kit, Perkin Elmer) the region of the GATA-3 cDNA from +530 to +1712 (numbered in accordance with the GATA-3 cDNA sequence, Genbank accession number X55122) using primers GATA3-2 (SEQ ID NO:3) [5-[…]-3'] and GATA3-4 (SEQ ID NO:4) [5'-[…]-3']. […]

free GATA-3 = assay: Gel retardation assay, free GATA-3 binding to GATA DNA probe; set-up: species or system human; conditions: 1 μM, gel shift
Source text: Acids Res 11, 1475-1489. […] (Santa Cruz Biotechnology) was also used as a competitor.

GATA-3 (TnT-GATA3) = GATA-3 (TnT-GATA3) (Homo sapiens, UniProt P23771 P23771:1-443); assay: competition; mutant cold competitor at 100-fold molar excess; text states only appropriate sequence specificity by gel shift competition; conditions: tags: none stated
Sequence of GATA-3 (TnT-GATA3) (P23771 whole entry, one chain of several): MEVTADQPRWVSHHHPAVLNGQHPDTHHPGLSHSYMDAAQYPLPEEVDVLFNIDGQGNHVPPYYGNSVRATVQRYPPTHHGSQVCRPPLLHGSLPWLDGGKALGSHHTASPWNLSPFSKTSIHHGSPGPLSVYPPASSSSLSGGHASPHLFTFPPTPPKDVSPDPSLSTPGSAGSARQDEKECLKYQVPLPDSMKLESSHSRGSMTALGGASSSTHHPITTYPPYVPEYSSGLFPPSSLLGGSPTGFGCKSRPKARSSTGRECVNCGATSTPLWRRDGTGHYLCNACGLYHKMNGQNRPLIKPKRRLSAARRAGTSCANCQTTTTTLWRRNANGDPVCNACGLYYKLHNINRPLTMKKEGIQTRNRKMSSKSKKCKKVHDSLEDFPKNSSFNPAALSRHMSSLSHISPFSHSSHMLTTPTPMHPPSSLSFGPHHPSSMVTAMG
Procedure: Acids Res* 11, 1475–1489. […] (Santa Cruz Biotechnology) was also used as a competitor.
It was important to determine if functional GATA-3 protein is expressed in these cells. The GATA-3 cDNA was cloned from the MCF7 cells and GATA-3 protein was expressed using in vitro transcription/translation. […] MCF7 nuclear extracts were also tested for GATA binding activity.

C[C@]12CC[C@@H]3c4ccc(O)cc4CC[C@H]3[C@@H]1CC[C@@H]2O [estradiol, β-estradiol]
expression of GATA-3 mRNA (MCF7 cells): did not change
pS2 expression (mRNA) (MCF7 cells): induced

CC/C(=C(\c1ccccc1)c1ccc(OCCN(C)C)cc1)c1ccccc1 [tamoxifen]
interference with free GATA-3 binding DNA (free GATA-3): does not interfere with free GATA-3 binding DNA

B1: mutant GATA oligonucleotide (dsDNA)
DNA 1: CACTTCTTAACAGAAAGTCTTAACTCT
DNA 2: AGAGTTAAGACTTTCTGTTAAGAAGTG
modifications: [NONE]
binding result (GATA-3 (TnT-GATA3)): no binding
